# According to patent US10487093B2, “Heterocyclic compounds, in particular 2-oxo-4,4,5,5,6,6,7,7-octahydrobenzoxazole derivatives, and their use as antibacterial compounds” (priority 2016, dated 2019):
# How the values were obtained:
# [1] = system: Escherichia coli ATCC 25922; experiment: MIC, broth microdilution (CLSI) versus planktonic bacteria; format: cell-based; conditions: ATCC25922; Escherichia coli ATCC 25922; 16-20 h; mode of three independent experiments; read-out: MIC, Ec ATCC 25922
# [2] = system: Enterobacter cloacae NCTC 13406; experiment: as above; format: cell-based; conditions: NCTC13406; Enterobacter cloacae NCTC 13406; 16-20 h; mode of three independent experiments; read-out: MIC, Ecl NCTC 13406
# [3] = system: Staphylococcus aureus ATCC 29213; experiment: as above; format: cell-based; conditions: ATCC29213; Staphylococcus aureus ATCC 29213; 16-20 h; mode of three independent experiments; read-out: MIC, Sa ATCC 29213
# [4] = system: Streptococcus pneumoniae ATCC 49619; experiment: as above; format: cell-based; conditions: ATCC49619; Streptococcus pneumoniae ATCC 49619; 16-20 h; mode of three independent experiments; read-out: MIC, Sp ATCC 49619
# [5] = system: Haemophilus influenzae ATCC 49247; experiment: as above; format: cell-based; conditions: ATCC49247; Haemophilus influenzae ATCC 49247; 16-20 h; mode of three independent experiments; read-out: MIC, Hi ATCC 49247
# [6] = system: Acinetobacter baumannii NCTC 13420; experiment: as above; format: cell-based; conditions: NCTC13420; Acinetobacter baumannii NCTC 13420; 16-20 h; mode of three independent experiments; read-out: MIC, Ab NCTC 13420
# [7] = system: Pseudomonas aeruginosa ATCC 27853; experiment: as above; format: cell-based; conditions: ATCC27853; Pseudomonas aeruginosa ATCC 27853; 16-20 h; mode of three independent experiments; read-out: MIC, Pa ATCC 27853
# [8] = system: human hepatic cell line (HepG2 ATCC HB-8065); experiment: Human cell viability assay (CellTiter-Glo); conditions: Homo sapiens, HepG2, 24 h, read-out: IC50 (μg/mL) HepG2
Structure (SMILES),MIC [1] [µg/mL],MIC [2] [µg/mL],MIC [3] [µg/mL],MIC [4] [µg/mL],MIC [5] [µg/mL],MIC [6] [µg/mL],MIC [7] [µg/mL],IC50 [8] [µg/mL]
"COc1cccc(-c2cccc(CN[C@H]3CC[C@H]4[C@H](C3)OC(=O)N4c3ccc4c(n3)NC(=O)CO4)c2)n1 [Compound 73, (3aS,6S,7aS)-6-({[3-(6-methoxypyridin-2-yl)phenyl]methyl}amino)-3-{3-oxo-2H,3H,4H-pyrido[3,2-b][1,4]oxazin-6-yl}-octahydro-1,3-benzoxazol-2-one]",< 1,1 to 10,< 1,1 to 10,1 to 10,1 to 10,10 to 100,
"O=C1COc2ccc(N3C(=O)O[C@H]4C[C@@H](NCCn5c(=O)ccc6ccc(OCCN7CCOCC7)cc65)CC[C@@H]43)nc2N1 [Compound 97, 1-(2-{[(3aS,6S,7aS)-2-oxo-3-{3-oxo-2H,3H,4H-pyrido[3,2-b][1,4]oxazin-6-yl}-octahydro-1,3-benzoxazol-6-yl]amino}ethyl)-7-[2-(morpholin-4-yl)ethoxy]-1,2-dihydroquinolin-2-one]",1 to 10,10 to 100,< 1,1 to 10,1 to 10,1 to 10,10 to 100,
"COc1ncc2ccc(=O)n(CCN[C@H]3CC[C@H]4[C@@H](C3)OC(=O)N4c3ccc4c(n3)NC(=O)CO4)c2n1 [Compound 17, (3aS,6S,7aR)-6-[(2-{2-methoxy-7-oxo-7H,8H-pyrido[2,3-d]pyrimidin-8-yl}ethyl)amino]-3-{3-oxo-2H,3H,4H-pyrido[3,2-b][1,4]oxazin-6-yl}-octahydro-1,3-benzoxazol-2-one]",1 to 10,10 to 100,1 to 10,10 to 100,10 to 100,10 to 100,10 to 100,10 to 100
"COc1cnc2ccc(=O)n(CCN(C)[C@H]3CC[C@H]4[C@@H](C3)OC(=O)N4c3ccc4c(n3)NC(=O)CO4)c2c1 [Compound 51, 1-(2-{[(3aS,6S,7aR)-2-oxo-3-{3-oxo-2H,3H,4H-pyrido[3,2-b][1,4]oxazin-6-yl}-octahydro-1,3-benzoxazol-6-yl](methyl)amino}ethyl)-7-methoxy-1,2-dihydro-1,5-naphthyridin-2-one]",1 to 10,1 to 10,< 1,< 1,< 1,1 to 10,1 to 10,> 100
"COc1ccc2ccc(=O)n(CCN[C@H]3CC[C@H]4[C@H](C3)OC(=O)N4c3ccc4c(n3)NC(=O)C(C)(C)O4)c2n1 [Compound 48, 1-(2-{[(3aS,6S,7aS)-3-{2,2-dimethyl-3-oxo-2H,3H,4H-pyrido[3,2-b][1,4]oxazin-6-yl}-2-oxo-octahydro-1,3-benzoxazol-6-yl]amino}ethyl)-7-methoxy-1,2-dihydro-1,8-naphthyridin-2-one]",1 to 10,10 to 100,< 1,< 1,1 to 10,< 1,10 to 100,> 100
"O=C1COc2ccc(N3C(=O)O[C@@H]4C[C@@H](NCCn5c(=O)cnc6ccc(F)cc65)CC[C@@H]43)nc2N1 [Compound 26, 1-(2-{[(3aS,6S,7aR)-2-oxo-3-{3-oxo-2H,3H,4H-pyrido[3,2-b][1,4]oxazin-6-yl}-octahydro-1,3-benzoxazol-6-yl]amino}ethyl)-7-fluoro-1,2-dihydroquinoxalin-2-one]",< 1,1 to 10,< 1,< 1,< 1,< 1,1 to 10,> 100
CN(CCn1c(=O)ccc2ccc(OCCN)cc21)[C@@H]1CC[C@@H]2[C@@H](C1)OC(=O)N2c1ccc2c(n1)NC(=O)CO2 [Compound 54],< 1,1 to 10,< 1,< 1,1 to 10,1 to 10,1 to 10,> 100
"O=C1COc2cnc(N3C(=O)O[C@@H]4C[C@@H](NCCn5c(=O)cnc6cc(F)c(F)cc65)CC[C@@H]43)nc2N1 [Compound 65, 1-(2-{[(3aS,6S,7aR)-2-oxo-3-{7-oxo-6H,7H,8H-pyrimido[5,4-b][1,4]oxazin-2-yl}-octahydro-1,3-benzoxazol-6-yl]amino}ethyl)-6,7-difluoro-1,2-dihydroquinoxalin-2-one]",1 to 10,1 to 10,< 1,< 1,1 to 10,10 to 100,10 to 100,> 100
"COc1cnc2ccc(=O)n(CCCN[C@H]3CC[C@H]4[C@H](C3)OC(=O)N4c3ccc4c(n3)NC(=O)CS4)c2c1 [Compound 96, 1-(3-{[(3aS,6S,7aS)-2-oxo-3-{3-oxo-2H,3H,4H-pyrido[3,2-b][1,4]thiazin-6-yl}-octahydro-1,3-benzoxazol-6-yl]amino}propyl)-7-methoxy-1,2-dihydro-1,5-naphthyridin-2-one]",,< 1,< 1,,< 1,< 1,1 to 10,
"CSc1ncc2ccc(=O)n(CCN[C@H]3CC[C@H]4[C@@H](C3)OC(=O)N4c3ccc4c(n3)NC(=O)CO4)c2n1 [Compound 53, (3aS,6S,7aR)-6-({2-[2-(methylsulfanyl)-7-oxo-7H,8H-pyrido[2,3-d]pyrimidin-8-yl]ethyl}amino)-3-{3-oxo-2H,3H,4H-pyrido[3,2-b][1,4]oxazin-6-yl}-octahydro-1,3-benzoxazol-2-one]",1 to 10,10 to 100,< 1,1 to 10,1 to 10,1 to 10,10 to 100,> 100
"COc1ccc2ccc(=O)n(CCN[C@@H]3CC[C@@H]4[C@@H](C3)OC(=O)N4c3cc4c(nn3)OCCO4)c2n1 [Compound 49, 1-(2-{[(3aR,6R,7aR)-3-{6H,7H-[1,4]dioxino[2,3-c]pyridazin-3-yl}-2-oxo-octahydro-1,3-benzoxazol-6-yl]amino}ethyl)-7-methoxy-1,2-dihydro-1,8-naphthyridin-2-one]",10 to 100,> 100,< 1,< 1,10 to 100,10 to 100,10 to 100,> 100
"O=C1COc2ccc(N3C(=O)O[C@H]4C[C@@H](NCCn5c(=O)ccc6ccc(OC7CNC7)cc65)CC[C@@H]43)nc2N1 [Compound 103, 1-(2-{[(3aS,6S,7aS)-2-oxo-3-{3-oxo-2H,3H,4H-pyrido[3,2-b][1,4]oxazin-6-yl}-octahydro-1,3-benzoxazol-6-yl]amino}ethyl)-7-(azetidin-3-yloxy)-1,2-dihydroquinolin-2-one]",1 to 10,,,1 to 10,,10 to 100,1 to 10,
"COc1ncc2ccc(=O)n(CCN[C@H]3CC[C@H]4[C@H](C3)OC(=O)N4c3ccc4c(n3)NC(=O)CO4)c2n1 [Compound 52, (3aS,6S,7aS)-6-[(2-{2-methoxy-7-oxo-7H,8H-pyrido[2,3-d]pyrimidin-8-yl}ethyl)amino]-3-{3-oxo-2H,3H,4H-pyrido[3,2-b][1,4]oxazin-6-yl}-octahydro-1,3-benzoxazol-2-one]",< 1,1 to 10,< 1,< 1,< 1,1 to 10,10 to 100,
"COc1ncc2ccc(=O)n(CCN[C@@H]3CC[C@@H]4[C@@H](C3)OC(=O)N4c3ncc4c(n3)NC(=O)CO4)c2n1 [Compound 33, (3aR,6R,7aR)-6-[(2-{2-methoxy-7-oxo-7H,8H-pyrido[2,3-d]pyrimidin-8-yl}ethyl)amino]-3-{7-oxo-6H,7H,8H-pyrimido[5,4-b][1,4]oxazin-2-yl}-octahydro-1,3-benzoxazol-2-one]",< 1,1 to 10,< 1,< 1,1 to 10,10 to 100,10 to 100,
"N#Cc1ccc2c(ccc(=O)n2CCN[C@H]2CC[C@H]3[C@H](C2)OC(=O)N3c2ccc3c(n2)NC(=O)CO3)c1 [Compound 107, 1-(2-{[(3aS,6S,7aS)-2-oxo-3-{3-oxo-2H,3H,4H-pyrido[3,2-b][1,4]oxazin-6-yl}-octahydro-1,3-benzoxazol-6-yl]amino}ethyl)-2-oxo-1,2-dihydroquinoline-6-carbonitrile]",1 to 10,10 to 100,1 to 10,1 to 10,1 to 10,1 to 10,> 100,
"COc1cnc2ccc(=O)n(CCN[C@@H]3CC[C@@H]4[C@@H](C3)OC(=O)N4c3ncc4c(n3)NC(=O)CO4)c2c1 [Compound 41, 1-(2-{[(3aR,6R,7aR)-2-oxo-3-{7-oxo-6H,7H,8H-pyrimido[5,4-b][1,4]oxazin-2-yl}-octahydro-1,3-benzoxazol-6-yl]amino}ethyl)-7-methoxy-1,2-dihydro-1,5-naphthyridin-2-one]",< 1,1 to 10,< 1,< 1,,10 to 100,1 to 10,
